Source: patent US20220340983A1, “SYSTEMS AND ASSAYS FOR IDENTIFYING PU.1 INHIBITORS” (Massachustts Institute of Technology, priority 2019, published 2022)

Key:
[1] = test system: PU.1 dependent gene expression; experiment: RT-qPCR of mRNA levels in BV2 PU.1-Luciferase cells (validation round 3); assay type: cell-based, mouse; details: 2-day treatment
Procedure: The Asinex1 and ChemDiv6 libraries contain molecules with unknown biological properties, but with low toxicity, high stability, and a broad structural diversity used to generate structure-activity-relationships (SAR) of the PU.1 inhibitors. […] In order to obtain the SAR, three rounds of validation were performed. In round 1, false-positive, non-specific luciferase quencher molecules were excluded using the commercially available HEK293 CMV-Luciferase line that constitutively expresses luciferase under the CMV promoter. In round 2, weak (non-significant) hits were eliminated according to degree of PU.1 inhibition in the absence of cell death. In round 3, drugs were selected that reduce PU.1-dependent gene expression with RT-qPCR.

PU.1 = target: T1, PU.1 (Mus musculus, UniProt P17433); experiment: Luciferase assay (luminescence) in BV2 PU.1-Luciferase reporter cells; assay type: cell-based; details: luminescence reduction in BV2 PU.1-Luciferase cells, concentration-response, Hill's equation
T1 construct: endogenous in cells; host or cells: BV2 PU.1-Luciferase (mouse microglial BV2 with a 5xLBB-luciferase reporter integrated at ROSA26)
Excerpt: PU.1 belongs to a group of transcription factors that all bind to the middle 5′-GGAA-3′ sequence. The flanking A/T rich sequence is crucial for conferring PU.1 selective binding. The flanking sequence requires unique structural properties of PU.1 and can therefore be targeted by drugs acting as allosteric inhibitors that prevent PU.1 from binding to the LBB. In order to achieve robust PU.1 binding, five tandem copies of the LBBs (5×LBB) were inserted into the luciferase promoter of the pGL4.23 plasmid. The region containing the five LBBs (5×LBB) was then subcloned into the pROSA26-1 plasmid (together with a PGKneo bpA plasmid for Neomycin/G418 resistance) that allows stable integration in chromosome 6 of the immortalized mouse microglial BV2 cell line (FIG. 2B). The stable cell line was created by selection with G418.
The BV2 PU.1-Luciferase cells (referred to as “cells” from here onward) were plated into a 384-well plate, using an automatic dispenser, 2000 cells per well in 30 μL of media composed of RPMI (Sigma-Aldrich), 10% FBS, 1% PenStrep (50 mg/mL) and 1% G418 (50 mg/mL) was plated. A robotic arm was used to transfer compounds in a 384-well format using a pin array into the plate containing the cells (here, 33 nL was transferred from a drug library containing 10 mM concentration of drugs for a final concentration of 10 μM per well). For reproducibility, each pin array with 384 compounds was added to 4 plates of cells. […] Subsequently, automatic of 30 μL of BrightGlo (Promega) was dispensed into 2 of the 4 plates, in order to lyse the cells and drive the luminescence reaction whereafter the luminescence intensity was measured by a plate reader (Perkin Elmer EnVision). The two other plates were fixed by automatically dispensing 30 μL of 10% formaldehyde with 2μL Hoechst per 1 mL formaldehyde which were left at room temperature for one hour, followed by plate reading (Acumen (TTPLabTech)). A compound transfer and treatment would be repeated if reproducibility between the luminescence plates and/or the fixed Hoechst plates was lacking. The drugs were selected and ranked according to the criteria described in FIG. 13. Luminescence values used were corrected for crosstalk. Hoechst values were total fluorescence area per well. Determination of a positive hit considered both the reduction of luminescence as well as a possible confounding reduction in cell viability. The formula used was y=(value−meanvalue)/stddev. […] Compounds were excluded if cell viability was reduced >2 standard deviations from the mean, using the same formula. The positive hits were then validated in multiple steps in order to identify true PU.1 inhibitors.
The degree of luminescence reduction of the hits was plotted with significant effective area under the curve in order to obtain an IC50.

Compound | IC50 (PU.1) | mRNA levels Apoe [1] | mRNA levels IL1β [1] | mRNA levels Lucif. [1] | mRNA levels Spi1 [1] | mRNA levels Trem2 [1] | mRNA levels Tyrobp [1]
CCc1ccc(NC(=O)Cn2c(=O)oc3cc(S(=O)(=O)N4CCCCCC4)ccc32)cc1 [Compound 2A7] | 3.62 µM | 0.886 multiples of 1× | 0.435 multiples of 1× | 0.328 multiples of 1× | 0.739 multiples of 1× | 0.942 multiples of 1× | 0.928 multiples of 1×
CCOC(=O)c1oc2ccc(S(=O)(=O)n3nc(-c4ccccc4OC)cc3N)cc2c1C [Compound 1H7] | 2.37 µM | 0.908 multiples of 1× | 1.017 multiples of 1× | 0.524 multiples of 1× | 1.022 multiples of 1× | 1.100 multiples of 1× | 1.011 multiples of 1×
C[C@H]1C[C@H]2[C@@H]3CCC4=CC(=O)C=C[C@]4(C)[C@@]3(F)[C@@H](O)C[C@]2(C)[C@@]1(O)C(=O)CO [Betamethasone, reference compound] | – | 1.615 multiples of 1× | 0.379 multiples of 1× | – | 1.235 multiples of 1× | 1.137 multiples of 1× | 1.079 multiples of 1×
Cc1nc(-c2ccc(S(=O)(=O)Nc3ccc(C)c(N(C)C)c3)cc2)co1 [Compound 2F3] | 2.29 µM | 1.011 multiples of 1× | 0.386 multiples of 1× | 0.496 multiples of 1× | 0.733 multiples of 1× | 0.790 multiples of 1× | 0.854 multiples of 1×
C[C@]12CCC(=O)C=C1CC[C@H]1[C@@H]3CC[C@](O)(C(=O)CO)[C@@]3(C)C[C@H](O)[C@@]12F [Fludrocortisone, reference compound] | – | 1.493 multiples of 1× | 1.764 multiples of 1× | 1.171 multiples of 1× | 0.900 multiples of 1× | 0.895 multiples of 1× | 1.082 multiples of 1×
Cc1cccc(Cn2cccc(C(=O)Nc3nc4ccccc4s3)c2=O)c1 [Compound 2F11] | 0.303 µM | 1.005 multiples of 1× | 1.086 multiples of 1× | 0.640 multiples of 1× | 0.943 multiples of 1× | 1.012 multiples of 1× | 1.002 multiples of 1×
CC(C)(C)OC(=O)N1CCC(c2c(C(=O)Nc3ccc4c(c3)OCCO4)cnn2-c2ccccc2)CC1 [Compound 2C12] | 2.93 µM | 0.731 multiples of 1× | 0.486 multiples of 1× | 0.597 multiples of 1× | 0.736 multiples of 1× | 0.752 multiples of 1× | 0.713 multiples of 1×
C[C@@H]1C[C@H]2[C@@H]3CCC4=CC(=O)C=C[C@]4(C)[C@@]3(F)[C@@H](O)C[C@]2(C)[C@@]1(O)C(=O)CO [Dexamethasone, reference compound] | – | 1.325 multiples of 1× | 1.041 multiples of 1× | 0.373 multiples of 1× | 0.955 multiples of 1× | 0.751 multiples of 1× | 1.010 multiples of 1×

The next lines start with results.

IC50 (PU.1) | Compound | mRNA levels Apoe [1] | mRNA levels IL1β [1] | mRNA levels Lucif. [1] | mRNA levels Spi1 [1] | mRNA levels Trem2 [1] | mRNA levels Tyrobp [1]
0.967 µM | CCCCN(c1ccccc1)c1ncnc2c1cnn2-c1ccc(Cl)cc1 [Compound 2G8] | 1.119 multiples of 1× | 1.362 multiples of 1× | 0.497 multiples of 1× | 1.179 multiples of 1× | 1.237 multiples of 1× | 1.469 multiples of 1×
0.038 µM | CCOc1ccc(S(=O)(=O)NCc2ccncc2)cc1C(C)C [Compound D09] | 0.390 multiples of 1× | 0.938 multiples of 1× | 0.360 multiples of 1× | 0.781 multiples of 1× | 0.437 multiples of 1× | 0.496 multiples of 1×
0.155 µM | Cc1ccc(-c2c(C)n3c4c(=O)n(C)c(=O)n(C)c4nc3n2CCO)cc1 [Compound 2H5] | 1.756 multiples of 1× | 0.185 multiples of 1× | 0.165 multiples of 1× | 1.316 multiples of 1× | 2.628 multiples of 1× | 2.422 multiples of 1×
2.28 µM | CC(=O)c1c(C)oc2ccc(N(C(=O)Oc3ccccc3)S(=O)(=O)c3ccc(C(C)(C)C)cc3)cc12 [Compound 1A2] | 0.858 multiples of 1× | 1.054 multiples of 1× | 0.324 multiples of 1× | 0.915 multiples of 1× | 1.073 multiples of 1× | 1.093 multiples of 1×
1.48 µM | N#CC(=CNc1ccc2c(c1)OCCO2)c1nc2ccccc2[nH]1 [Compound A09] | 0.941 multiples of 1× | 0.644 multiples of 1× | 0.513 multiples of 1× | 0.931 multiples of 1× | 0.879 multiples of 1× | 0.821 multiples of 1×
0.876 µM | CCc1ccc(CNC(=O)C2CCCN(c3nn4cc(-c5ccc(F)cc5)nc4s3)C2)cc1 (stereo not drawn) [Compound 2C2] | 1.035 multiples of 1× | 0.954 multiples of 1× | 0.504 multiples of 1× | 1.034 multiples of 1× | 1.031 multiples of 1× | 1.130 multiples of 1×
0.477 µM | Cc1ccccc1NC(=O)C(C)Sc1nc2ccccc2c(=O)n1C (stereo not drawn) [Compound D04] | 0.841 multiples of 1× | 0.866 multiples of 1× | 0.519 multiples of 1× | 0.865 multiples of 1× | 0.976 multiples of 1× | 1.071 multiples of 1×
0.025 µM | Cn1nc(CC(=O)Nc2ccc(N3CCN(C(=O)OC(C)(C)C)CC3)cc2)c2ccccc2c1=O [Compound D06] | 1.233 multiples of 1× | 0.590 multiples of 1× | 0.153 multiples of 1× | 1.030 multiples of 1× | 1.510 multiples of 1× | 1.374 multiples of 1×
0.663 µM | CC(=NCCCn1ccnc1)c1c(C(F)(F)F)[nH]n(-c2nc3ccccc3s2)c1=O [Compound E01] | 0.823 multiples of 1× | 0.986 multiples of 1× | 0.416 multiples of 1× | 0.912 multiples of 1× | 0.903 multiples of 1× | 0.988 multiples of 1×
0.507 µM | CSc1ccc(C=Cc2nc3ccccc3n2S(=O)(=O)c2ccc(F)c(C)c2)cc1 [Compound 2G10] | 0.899 multiples of 1× | 0.786 multiples of 1× | 0.531 multiples of 1× | 0.790 multiples of 1× | 0.993 multiples of 1× | 0.855 multiples of 1×
0.38 µM | CCOc1ccc(-c2nc(CSCC(=O)NCc3ccc(C)cc3)c(C)o2)cc1 [Compound 2H2] | 1.739 multiples of 1× | 0.706 multiples of 1× | 0.299 multiples of 1× | 1.251 multiples of 1× | 1.668 multiples of 1× | 1.952 multiples of 1×
